ChEMBL document CHEMBL5291721, “A preclinical secondary pharmacology resource illuminates target-adverse drug reaction associations of marketed drugs” (Nat Commun, 2023)

How the values were obtained:
[1] = molecular target: Neurotensin receptor type 1 (Homo sapiens, UniProt P30989)
[2] = molecular target: T1, Corticotropin-releasing factor receptor 1 (Homo sapiens, UniProt P34998)
T1 sequence (P34998 whole entry): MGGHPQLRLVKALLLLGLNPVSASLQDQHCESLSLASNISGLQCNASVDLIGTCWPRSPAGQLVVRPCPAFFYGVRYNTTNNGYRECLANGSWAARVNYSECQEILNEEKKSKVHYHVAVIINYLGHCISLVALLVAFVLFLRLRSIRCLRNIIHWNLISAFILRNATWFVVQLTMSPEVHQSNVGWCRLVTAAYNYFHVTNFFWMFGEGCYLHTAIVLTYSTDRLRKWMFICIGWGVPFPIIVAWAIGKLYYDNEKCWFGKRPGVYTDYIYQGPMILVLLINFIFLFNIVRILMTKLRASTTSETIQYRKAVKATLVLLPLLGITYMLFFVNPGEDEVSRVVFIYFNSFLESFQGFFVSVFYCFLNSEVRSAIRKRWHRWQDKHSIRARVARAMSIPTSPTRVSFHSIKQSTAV

[3] = molecular target: T2, Alpha-1A adrenergic receptor (Homo sapiens, UniProt P35348)
T2 sequence (P35348 whole entry): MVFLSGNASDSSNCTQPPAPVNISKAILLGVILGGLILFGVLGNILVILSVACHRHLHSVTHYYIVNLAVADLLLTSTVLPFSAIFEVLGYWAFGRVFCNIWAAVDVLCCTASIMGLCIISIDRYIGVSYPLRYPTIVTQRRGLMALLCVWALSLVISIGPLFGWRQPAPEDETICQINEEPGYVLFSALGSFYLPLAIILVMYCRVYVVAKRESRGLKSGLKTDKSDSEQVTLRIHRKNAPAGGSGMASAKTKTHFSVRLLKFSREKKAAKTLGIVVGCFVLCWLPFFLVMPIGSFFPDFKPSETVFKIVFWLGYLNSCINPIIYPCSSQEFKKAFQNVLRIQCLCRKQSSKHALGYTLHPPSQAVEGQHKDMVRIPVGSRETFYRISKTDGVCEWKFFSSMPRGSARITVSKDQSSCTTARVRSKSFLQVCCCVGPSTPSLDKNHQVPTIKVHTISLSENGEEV

[4] = molecular target: T3, Muscarinic acetylcholine receptor M2 (Homo sapiens, UniProt P08172)
T3 sequence (P08172 whole entry): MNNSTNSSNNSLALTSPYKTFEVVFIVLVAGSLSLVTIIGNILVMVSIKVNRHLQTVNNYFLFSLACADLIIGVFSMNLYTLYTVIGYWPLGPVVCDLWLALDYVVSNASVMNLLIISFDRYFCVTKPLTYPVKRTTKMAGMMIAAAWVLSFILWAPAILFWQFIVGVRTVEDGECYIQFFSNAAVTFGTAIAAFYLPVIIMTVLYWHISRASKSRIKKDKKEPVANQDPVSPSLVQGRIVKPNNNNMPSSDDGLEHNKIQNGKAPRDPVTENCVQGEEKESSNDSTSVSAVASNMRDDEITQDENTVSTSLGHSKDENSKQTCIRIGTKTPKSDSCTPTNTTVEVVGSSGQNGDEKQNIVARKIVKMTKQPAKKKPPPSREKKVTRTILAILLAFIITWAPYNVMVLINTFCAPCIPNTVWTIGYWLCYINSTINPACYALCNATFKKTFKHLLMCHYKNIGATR

[5] = molecular target: Beta-3 adrenergic receptor (Homo sapiens, UniProt P13945)
Sequence of Beta-3 adrenergic receptor (P13945 whole entry): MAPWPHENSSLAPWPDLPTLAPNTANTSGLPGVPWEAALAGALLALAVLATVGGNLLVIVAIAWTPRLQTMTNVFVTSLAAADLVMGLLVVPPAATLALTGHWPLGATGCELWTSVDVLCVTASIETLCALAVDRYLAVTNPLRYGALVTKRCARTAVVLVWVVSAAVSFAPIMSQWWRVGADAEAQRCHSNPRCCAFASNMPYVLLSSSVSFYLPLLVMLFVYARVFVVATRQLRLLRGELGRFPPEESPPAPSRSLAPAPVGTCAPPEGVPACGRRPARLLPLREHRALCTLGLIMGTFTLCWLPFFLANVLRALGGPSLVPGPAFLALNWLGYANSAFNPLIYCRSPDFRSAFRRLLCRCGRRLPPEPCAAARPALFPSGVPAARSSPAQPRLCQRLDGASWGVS

[6] = molecular target: T4, Neuropeptide Y receptor type 2 (Homo sapiens, UniProt P49146)
T4 sequence (P49146 whole entry): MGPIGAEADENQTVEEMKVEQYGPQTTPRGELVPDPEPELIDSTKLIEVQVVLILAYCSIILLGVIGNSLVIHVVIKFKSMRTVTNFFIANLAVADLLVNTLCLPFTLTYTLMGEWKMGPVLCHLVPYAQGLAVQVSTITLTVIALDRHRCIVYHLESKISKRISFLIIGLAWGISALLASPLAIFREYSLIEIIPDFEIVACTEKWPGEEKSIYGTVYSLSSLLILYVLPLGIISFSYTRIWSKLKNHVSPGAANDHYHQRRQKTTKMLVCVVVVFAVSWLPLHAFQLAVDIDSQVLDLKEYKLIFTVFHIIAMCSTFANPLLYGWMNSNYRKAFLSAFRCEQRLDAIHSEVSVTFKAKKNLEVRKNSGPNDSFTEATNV

[7] = molecular target: Voltage-dependent N-type calcium channel subunit alpha-1B (Rattus norvegicus, UniProt Q02294); format: functional
Sequence of Voltage-dependent N-type calcium channel subunit alpha-1B (Q02294 whole entry): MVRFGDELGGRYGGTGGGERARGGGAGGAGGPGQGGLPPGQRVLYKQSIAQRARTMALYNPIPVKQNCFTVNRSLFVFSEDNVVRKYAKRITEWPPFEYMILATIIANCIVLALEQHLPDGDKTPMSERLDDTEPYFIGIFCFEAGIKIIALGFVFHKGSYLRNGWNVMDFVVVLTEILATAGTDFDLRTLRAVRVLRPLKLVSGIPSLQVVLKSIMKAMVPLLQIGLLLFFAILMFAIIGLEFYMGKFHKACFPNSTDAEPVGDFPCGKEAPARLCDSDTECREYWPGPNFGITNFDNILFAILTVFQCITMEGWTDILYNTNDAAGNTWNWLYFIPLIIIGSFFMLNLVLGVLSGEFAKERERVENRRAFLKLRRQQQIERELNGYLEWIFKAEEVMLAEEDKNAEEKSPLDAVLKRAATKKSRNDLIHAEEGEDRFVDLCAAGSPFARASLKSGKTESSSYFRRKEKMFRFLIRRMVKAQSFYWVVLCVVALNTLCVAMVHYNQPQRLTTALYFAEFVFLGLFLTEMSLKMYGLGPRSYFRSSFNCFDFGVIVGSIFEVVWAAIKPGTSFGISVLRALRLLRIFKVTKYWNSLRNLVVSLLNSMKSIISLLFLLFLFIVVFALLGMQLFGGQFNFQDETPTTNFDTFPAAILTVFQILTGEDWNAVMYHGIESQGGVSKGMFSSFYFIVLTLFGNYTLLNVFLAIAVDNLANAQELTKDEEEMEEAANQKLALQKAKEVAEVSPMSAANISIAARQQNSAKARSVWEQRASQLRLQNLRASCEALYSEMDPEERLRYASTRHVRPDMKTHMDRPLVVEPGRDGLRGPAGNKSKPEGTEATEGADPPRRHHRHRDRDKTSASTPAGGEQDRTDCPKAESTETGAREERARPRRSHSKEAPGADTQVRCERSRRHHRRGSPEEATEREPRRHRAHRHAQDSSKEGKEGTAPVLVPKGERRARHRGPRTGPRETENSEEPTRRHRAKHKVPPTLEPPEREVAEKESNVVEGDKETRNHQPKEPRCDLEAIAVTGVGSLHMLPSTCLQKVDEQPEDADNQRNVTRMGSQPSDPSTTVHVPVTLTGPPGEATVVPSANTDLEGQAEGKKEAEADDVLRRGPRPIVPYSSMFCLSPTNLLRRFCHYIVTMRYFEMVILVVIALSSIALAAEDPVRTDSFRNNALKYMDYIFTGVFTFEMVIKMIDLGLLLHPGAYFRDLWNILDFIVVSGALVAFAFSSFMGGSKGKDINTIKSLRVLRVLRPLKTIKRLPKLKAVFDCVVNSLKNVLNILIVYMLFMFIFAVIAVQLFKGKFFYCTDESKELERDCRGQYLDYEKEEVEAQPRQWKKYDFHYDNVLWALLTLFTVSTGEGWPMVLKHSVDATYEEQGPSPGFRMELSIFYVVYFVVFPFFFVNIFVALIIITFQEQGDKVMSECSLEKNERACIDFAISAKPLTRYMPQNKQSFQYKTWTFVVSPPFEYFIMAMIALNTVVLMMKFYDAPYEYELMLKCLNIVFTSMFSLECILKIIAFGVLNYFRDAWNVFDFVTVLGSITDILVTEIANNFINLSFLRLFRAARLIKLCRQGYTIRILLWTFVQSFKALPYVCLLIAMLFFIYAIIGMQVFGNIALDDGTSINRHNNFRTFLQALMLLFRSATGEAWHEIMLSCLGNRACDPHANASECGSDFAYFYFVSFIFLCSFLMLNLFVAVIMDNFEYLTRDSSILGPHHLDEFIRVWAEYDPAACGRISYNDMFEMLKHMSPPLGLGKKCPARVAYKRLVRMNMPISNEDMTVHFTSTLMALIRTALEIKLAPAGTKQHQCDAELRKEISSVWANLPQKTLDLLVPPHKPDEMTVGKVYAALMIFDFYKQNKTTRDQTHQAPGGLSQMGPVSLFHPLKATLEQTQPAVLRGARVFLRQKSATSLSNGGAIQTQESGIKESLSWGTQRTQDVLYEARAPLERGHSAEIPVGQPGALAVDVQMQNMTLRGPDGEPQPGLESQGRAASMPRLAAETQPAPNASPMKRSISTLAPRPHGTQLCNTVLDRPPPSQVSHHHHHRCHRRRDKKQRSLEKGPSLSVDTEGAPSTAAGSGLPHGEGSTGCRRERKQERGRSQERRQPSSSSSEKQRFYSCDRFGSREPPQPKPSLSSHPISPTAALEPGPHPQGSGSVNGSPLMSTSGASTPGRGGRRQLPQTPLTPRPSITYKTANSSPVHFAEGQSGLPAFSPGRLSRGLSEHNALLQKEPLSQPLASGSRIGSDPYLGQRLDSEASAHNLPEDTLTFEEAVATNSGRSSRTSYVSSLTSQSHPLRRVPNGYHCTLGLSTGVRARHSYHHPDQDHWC

Histamine H2 receptor = Histamine H2 receptor (Homo sapiens, UniProt P25021)
Sequence of Histamine H2 receptor (P25021 whole entry): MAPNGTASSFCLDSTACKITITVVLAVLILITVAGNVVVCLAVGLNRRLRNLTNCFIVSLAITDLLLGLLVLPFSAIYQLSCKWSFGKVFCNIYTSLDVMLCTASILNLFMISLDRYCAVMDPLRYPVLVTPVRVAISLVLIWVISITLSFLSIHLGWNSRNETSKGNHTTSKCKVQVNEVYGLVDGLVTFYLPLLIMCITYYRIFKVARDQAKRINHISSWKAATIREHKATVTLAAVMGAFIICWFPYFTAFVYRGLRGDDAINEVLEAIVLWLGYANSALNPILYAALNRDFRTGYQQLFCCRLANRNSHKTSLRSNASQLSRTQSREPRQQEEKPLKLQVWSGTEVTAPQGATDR

[8] = molecular target: T5, 5-hydroxytryptamine receptor 1A (Homo sapiens, UniProt P08908)
T5 sequence (P08908 whole entry): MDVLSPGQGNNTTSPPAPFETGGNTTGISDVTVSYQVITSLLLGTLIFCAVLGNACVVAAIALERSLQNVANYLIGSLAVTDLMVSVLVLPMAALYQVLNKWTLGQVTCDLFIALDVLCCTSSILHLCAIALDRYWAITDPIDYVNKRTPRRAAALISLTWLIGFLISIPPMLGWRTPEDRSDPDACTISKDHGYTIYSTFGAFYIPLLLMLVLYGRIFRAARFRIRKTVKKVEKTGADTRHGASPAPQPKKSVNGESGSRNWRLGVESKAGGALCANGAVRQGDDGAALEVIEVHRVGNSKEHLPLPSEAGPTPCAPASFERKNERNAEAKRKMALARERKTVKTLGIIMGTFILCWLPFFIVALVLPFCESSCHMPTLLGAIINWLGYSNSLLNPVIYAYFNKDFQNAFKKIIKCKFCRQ

D(4) dopamine receptor = molecular target: T6, D(4) dopamine receptor (Homo sapiens, UniProt P21917)
T6 sequence (P21917 whole entry): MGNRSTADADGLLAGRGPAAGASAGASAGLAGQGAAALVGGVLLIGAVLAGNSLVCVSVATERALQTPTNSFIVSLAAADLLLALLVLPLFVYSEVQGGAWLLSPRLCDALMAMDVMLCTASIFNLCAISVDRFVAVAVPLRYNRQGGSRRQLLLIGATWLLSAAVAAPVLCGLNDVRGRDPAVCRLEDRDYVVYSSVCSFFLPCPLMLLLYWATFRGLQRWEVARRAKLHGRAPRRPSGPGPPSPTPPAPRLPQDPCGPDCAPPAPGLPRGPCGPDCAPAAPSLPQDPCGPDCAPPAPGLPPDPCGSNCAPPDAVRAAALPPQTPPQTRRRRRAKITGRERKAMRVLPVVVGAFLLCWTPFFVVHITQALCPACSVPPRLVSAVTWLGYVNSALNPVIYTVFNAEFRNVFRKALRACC

[9] = molecular target: Beta-2 adrenergic receptor (Homo sapiens, UniProt P07550); format: functional, cell-based
Sequence of Beta-2 adrenergic receptor (P07550 whole entry): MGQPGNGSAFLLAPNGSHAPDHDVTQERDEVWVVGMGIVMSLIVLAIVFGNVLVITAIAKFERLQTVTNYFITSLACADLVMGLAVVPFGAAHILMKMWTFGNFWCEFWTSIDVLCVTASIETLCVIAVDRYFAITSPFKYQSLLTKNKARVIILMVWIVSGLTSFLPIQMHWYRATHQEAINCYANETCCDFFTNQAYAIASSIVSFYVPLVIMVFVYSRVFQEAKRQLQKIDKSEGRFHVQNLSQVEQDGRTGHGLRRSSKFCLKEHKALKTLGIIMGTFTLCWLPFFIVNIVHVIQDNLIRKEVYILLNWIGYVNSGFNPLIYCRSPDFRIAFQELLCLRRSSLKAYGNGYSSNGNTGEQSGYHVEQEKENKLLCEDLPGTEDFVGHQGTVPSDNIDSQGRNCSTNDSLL
Further: assay procedure not described here.

Sequence of Neurotensin receptor type 1 (P30989 whole entry): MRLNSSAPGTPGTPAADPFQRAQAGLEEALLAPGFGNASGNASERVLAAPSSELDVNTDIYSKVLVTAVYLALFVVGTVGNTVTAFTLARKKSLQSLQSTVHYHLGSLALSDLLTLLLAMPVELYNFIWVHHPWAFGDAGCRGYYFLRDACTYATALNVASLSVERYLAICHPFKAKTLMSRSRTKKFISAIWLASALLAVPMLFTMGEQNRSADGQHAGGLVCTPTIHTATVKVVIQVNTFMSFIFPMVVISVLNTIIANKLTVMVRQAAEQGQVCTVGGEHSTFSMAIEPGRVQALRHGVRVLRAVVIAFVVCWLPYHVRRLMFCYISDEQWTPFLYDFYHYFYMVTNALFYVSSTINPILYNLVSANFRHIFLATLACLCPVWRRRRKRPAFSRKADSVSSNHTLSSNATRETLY

Row | SMILES | AC50 [1] [µM] | AC50 [2] [µM] | AC50 [3] [µM] | AC50 [4] [µM] | AC50 [5] [µM] | AC50 [6] [µM] | AC50 [7] [µM] | AC50 (Histamine H2 receptor) [µM] | AC50 [8] [µM] | AC50 (D(4) dopamine receptor) [µM] | AC50 [9] [µM]
1 | C[C@]1(COc2ccc(N3CCC(Oc4ccc(OC(F)(F)F)cc4)CC3)cc2)Cn2cc([N+](=O)[O-])nc2O1 | > 30 | > 30 | > 10 | > 10 | > 30 | > 30 | > 10 | > 10 | > 10 | > 10 | –
2 | CC(=O)OCC[N+](C)(C)C [ACETYLCHOLINE] | > 30 | > 30 | > 10 | – | > 30 | > 30 | > 10 | > 10 | > 10 | > 10 | –
3 | O=C(Nc1nc(-c2cc(Cl)cs2)c(N2CCN(C3CCCCC3)CC2)s1)c1cnc(N2CCC(C(=O)O)CC2)c(Cl)c1 [AVATROMBOPAG] | > 10 | – | > 10 | > 10 | – | > 10 | > 10 | > 10 | > 10 | > 10 | –
4 | C[C@H]1C[C@H]2[C@@H]3CCC4=CC(=O)C=C[C@]4(C)[C@@]3(Cl)[C@@H](O)C[C@]2(C)[C@@]1(O)C(=O)CO [BECLOMETHASONE] | > 30 | > 30 | > 10 | > 10 | > 30 | > 30 | > 10 | > 10 | > 10 | > 10 | –
5 | CO[C@@]1(NC(=O)CSCC#N)C(=O)N2C(C(=O)O)=C(CSc3nnnn3C)CS[C@@H]21 [CEFMETAZOLE] | – | – | – | – | – | – | – | – | – | – | > 30
6 | CO/N=C(\C(=O)N[C@@H]1C(=O)N2C(C(=O)[O-])=C(C[n+]3cccc4c3CCC4)CS[C@H]12)c1csc(N)n1 [CEFPIROME] | – | – | – | – | – | – | – | – | – | – | > 30
7 | CC[C@H]1OC(=O)[C@H](C)[C@@H](O[C@H]2C[C@@](C)(OC)[C@@H](O)[C@H](C)O2)[C@H](C)[C@@H](O[C@@H]2O[C@H](C)C[C@H](N(C)C)[C@H]2O)[C@](C)(OC)C[C@@H](C)C(=O)[C@H](C)[C@@H](O)[C@]1(C)O [CLARITHROMYCIN] | – | – | – | – | – | – | – | – | – | – | > 30
8 | Oc1c(I)cc(Cl)c2cccnc12 [CLIOQUINOL] | – | – | – | – | – | – | – | – | – | – | > 10
9 | COc1ccc2c(c1)[C@]13CCCC[C@@H]1[C@H](C2)N(C)CC3 [DEXTROMETHORPHAN] | > 30 | > 30 | 5.22 | > 10 | > 30 | > 30 | > 10 | > 10 | > 10 | > 10 | –
10 | CCn1cc(C(=O)O)c(=O)c2cc(F)c(N3CCNCC3)nc21 [ENOXACIN] | > 30 | > 30 | > 10 | > 10 | > 30 | > 30 | > 10 | > 10 | > 10 | > 10 | –
11 | CNC(=O)Oc1ccc2c(c1)[C@]1(C)CCN(C)[C@@H]1N2C [PHYSOSTIGMINE] | – | – | – | – | – | – | – | – | – | – | > 30
12 | CNCCCC1c2ccccc2C=Cc2ccccc21 [PROTRIPTYLINE] | – | – | – | 0.653 | – | – | – | – | – | – | –
13 | COCCCOc1ccnc(C[S+]([O-])c2nc3ccccc3[nH]2)c1C (centres undefined) [RABEPRAZOLE] | > 30 | > 30 | 4.98 | > 10 | > 30 | > 30 | > 10 | > 10 | > 10 | > 10 | –
14 | O=C(CCCN1CCC2(CC1)C(=O)NCN2c1ccccc1)c1ccc(F)cc1 [SPIPERONE] | – | – | – | – | – | – | – | – | – | – | > 30
